A short description of data set [1]: Polymorph screen solvent systems: solubility noted when preparing saturated solutions. Conditions: solvent system: water. The class given is physicochemical. The protocol: A saturated solution of Compound 1, Form XX was made by preparing 1 mL slurries using acetonitrile (ACN), ACN-water (75:25), methylethyl ketone (MEK), or MEK-water (99:1, 90:10, or 80:20) in vials. After 24 hours in capped HPLC vials, the slurries were then filtered to remove residual solids. Approximately 2 additional milligrams of Compound 1 was added to each vial containing a saturated solution. Next, the vials were heated to 70° C. with stirring until all of the material was completely dissolved. Immediately after, the samples were submerged into an ice bath. The product, which precipitated as a white powder within 1 minute, was isolated by filtration and analyzed by XRPD and TGA.
A saturated solution was made by slurrying Compound 1, Form XX in 5 mL of solvent (ACN, isopropyl acetate (IPAc), or MEK) or 1 mL of solvent for the MEK/Water solvent system. After 24 hours, the residual solids were removed by filtration. The saturated solutions were then subjected to rapid solvent evaporation by blowing nitrogen (N2) gas over the samples with a Pierce Model 18780 Reacti-Vap evaporating unit for four hours. The product precipitated as a white powder and the form was analyzed by XRPD and TGA.
A saturated solution of Compound 1, Form XX was made by slurrying either in 5 mL of solvent in the ACN, IPAc, and MEK solvent systems, 2 mL total solvent for IPAc/water, or 1 mL total solvent for the MEK/water solvent systems. After 24 hours, the residual solids were removed by filtration. 20 mL of antisolvent was then quickly added to the saturated solutions to induce precipitation. Hexane was used as the antisolvent in the MEK and IPAc solvent systems, and MTBE was used as the antisolvent in the ACN solvent systems, as a consequence of the immiscibility between ACN and hexane. The product precipitated as a white powder and the form was analyzed by XRPD and TGA.

Data set [2] can be described thus: Desolvation: standing open under ambient conditions or in vacuum oven, form checked by XRPD. The class given is physicochemical. The procedure:
A polymorph screen was conducted in the methylethyl ketone (MEK)/water solvent systems, as well as in the acetonitrile (ACN), ACN/water and isopropyl acetate solvent systems. Polymorph screening techniques included crash cooling, solvent evaporation, antisolvent addition, and slurry experiments. Slurry experiments were performed on an IKA RCT hot plate with magnetic stirring set to 710 rpm. The temperature was controlled with an IKA ETS-D5 thermocouple. Solvent volumes were measured and transferred with Gibson Pipetteman volumetric pipettes. New forms that were identified as solvates were subjected to desolvation under two potential conditions: (1) drying in a vacuum oven at 40° C. and (2) sitting undisturbed under ambient conditions in a fume hood. Physical characterization of all forms proceeded by X-ray powder diffraction (XRPD) and thermogravimetric analysis (TGA).
New forms of Compound 1 obtained in the polymorph screen suspected of being solvates were subjected to further form investigation through attempted desolvation. Forms D, E, F, G, H, I, J, K, L and Hydrate A were left to stand open to the atmosphere under ambient conditions and or were placed in a vacuum oven.

As for `CC(C)(C)c1cc(C(C)(C)C)c(NC(=O)c2c[nH]c3ccccc3c2=O)cc1O` [Compound 1, Form XX, N-[2,4-bis(1,1-dimethylethyl)-5-hydroxyphenyl]-1,4-dihydro-4-oxoquinoline-3-carboxamide], in data set [1], the “Solubility in solvent system (antisolvent addition results)” value was “not soluble”, the “Solubility in solvent system (crash cooling results)” value was “not soluble” and the “Solubility in solvent system (solvent evaporation results)” value is “not soluble”.

Take `CC(C)(C)c1cc(C(C)(C)C)c(NC(=O)c2c[nH]c3ccccc3c2=O)cc1O` [Form D, N-[2,4-bis(1,1-dimethylethyl)-5-hydroxyphenyl]-1,4-dihydro-4-oxoquinoline-3-carboxamide]: the “Solid form after desolvation attempt” value in data set [2] (ambient conditions and vacuum oven for approximately 1 month) is “converted to a new crystalline form of Compound 1 designated Form R”.

For `CC(C)(C)c1cc(C(C)(C)C)c(NC(=O)c2c[nH]c3ccccc3c2=O)cc1O` [Form E, N-[2,4-bis(1,1-dimethylethyl)-5-hydroxyphenyl]-1,4-dihydro-4-oxoquinoline-3-carboxamide], the “XRPD pattern after desolvation attempt” value in data set [2] (after standing under ambient conditions and after sitting in the vacuum oven) is “same XRPD patterns”.

Take `CC(C)(C)c1cc(C(C)(C)C)c(NC(=O)c2c[nH]c3ccccc3c2=O)cc1O` [Form G, N-[2,4-bis(1,1-dimethylethyl)-5-hydroxyphenyl]-1,4-dihydro-4-oxoquinoline-3-carboxamide]: the “Solid form after desolvation attempt” value in data set [2] (vacuum oven for one month) is on record as “became x-ray amorphous”.

In the case of `CC(C)(C)c1cc(C(C)(C)C)c(NC(=O)c2c[nH]c3ccccc3c2=O)cc1O` [Form H, N-[2,4-bis(1,1-dimethylethyl)-5-hydroxyphenyl]-1,4-dihydro-4-oxoquinoline-3-carboxamide], the “Solid form after desolvation attempt” value in data set [2] (ambient conditions for one month) was “same Form H pattern”; in data set [2] (vacuum oven for one month) it was “converted to a semi-crystalline form”.

`CC(C)(C)c1cc(C(C)(C)C)c(NC(=O)c2c[nH]c3ccccc3c2=O)cc1O` [Form K, N-[2,4-bis(1,1-dimethylethyl)-5-hydroxyphenyl]-1,4-dihydro-4-oxoquinoline-3-carboxamide]: in data set [2] (ambient conditions and vacuum oven for 2 months), the “Solid form after desolvation attempt” value is recorded as “converted to a new crystalline form of Compound 1 designated Form S”.

Turning to `CC(C)(C)c1cc(C(C)(C)C)c(NC(=O)c2c[nH]c3ccccc3c2=O)cc1O` [Form L, N-[2,4-bis(1,1-dimethylethyl)-5-hydroxyphenyl]-1,4-dihydro-4-oxoquinoline-3-carboxamide], the “Solid form after desolvation attempt” value in data set [2] (ambient conditions for two weeks) is given as “same Form L pattern”; in data set [2] (vacuum oven for 24 hours), “converted to x-ray amorphous”.

The record behind these values is patent US9045425B2, “Solid forms of N-[2,4-bis(1,1-dimethylethyl)-5-hydroxyphenyl]-1,4-dihydro-4-oxoquinoline-3-carboxamide” (Vertex Pharmaceuticals Incorporated, priority 2012, dated 2015).
